The source made the active and inactive calls. The calls are words filed in the database; no cut-off is given here. Starred links: 1 amine or outer side, 2 acyl side, 3 side chain; linkers in the order of their positions; H or OH if unused. Non-standard residues stand in square brackets, D forms with d. Residues, ends and D or L forms follow the SMILES beside them. X1 = C[C@@]12Nc3ccccc3[C@]1(O)C[C@@H](C(=O)[*:2])N2[*:1]; Kyn = Nc1ccccc1C(=O)C[C@H](N)C(=O)O
Columns and labels:
[1] = system: 3T3-L1; assay: Anti-adipogenic activity against mouse 3T3-L1 cells assessed as decrease in triglyceride level at 1 to 100 uM by Oil Red O staining based analysis; format: functional, cell-based; conditions: dose 1-100 µM
[2] = system: 3T3-L1; assay: Cytotoxicity against mouse 3T3-L1 cells assessed as cell viability incubated for 48 hrs by MTT assay; format: toxicity, cell-based; conditions: 3t3-l1, 48 h
[3] = system: 3T3-L1; assay: Anti-adipogenic activity against mouse 3T3-L1 cells assessed as decrease in triglyceride level by Oil Red O staining based analysis; format: functional, cell-based

Structure (SMILES)	Activity [1]	Activity [2]	EC50 [3] [nM]
CC(C)C[C@@H]1NC(=O)[C@@H]2CCCN2C(=O)[C@H](Cc2ccccc2)NC(=O)[C@@H]2CCCN2C(=O)[C@H](C)NC(=O)[C@H](Cc2ccc(O)cc2)NC(=O)[C@@H]2CCCN2C(=O)[C@H](Cc2ccc(O)cc2)NC1=O (cyclo(APFPLYPY))	Active	Non-Toxic	
CC(C)C[C@@H]1NC(=O)[C@H](Cc2ccc(O)cc2)NC(=O)[C@@H]2CCCN2C(=O)[C@H](Cc2ccccc2)NC(=O)CNC(=O)[C@@H]2CCCN2C1=O (cyclo(FPYLPG))	Active	Non-Toxic	1170
O=C1CNC(=O)[C@@H]2CCCN2C(=O)[C@H](Cc2c[nH]c3ccccc23)NC(=O)[C@H](Cc2ccc(O)cc2)NC(=O)[C@@H]2CCCN2C(=O)[C@H](Cc2ccccc2)N1 (cyclo(FPYWPG))	Active	Non-Toxic	
CC(C)C[C@@H]1NC(=O)[C@@H]2CCCN2C(=O)[C@H](CO)NC(=O)CNC(=O)[C@@H]2C[C@@]3(O)c4ccccc4N[C@@]3(C)N2C(=O)[C@H](CC(C)C)NC(=O)[C@H](CO)NC(=O)[C@@H]2CCCN2C1=O (cyclo(GSPLPSL[X1]))	Active	Non-Toxic	
CC(C)C[C@@H]1NC(=O)[C@H](CO)NC(=O)[C@@H]2CCCN2C(=O)[C@H](CC(C)C)NC(=O)[C@@H]2CCCN2C(=O)[C@H](CO)NC(=O)CNC(=O)[C@H](Cc2c[nH]c3ccccc23)NC1=O (cyclo(GSPLPSLW))	Active	Non-Toxic	
Nc1ccccc1C(=O)C[C@@H]1NC(=O)[C@H](Cc2ccc(O)cc2)NC(=O)[C@@H]2CCCN2C(=O)[C@H](Cc2ccccc2)NC(=O)CNC(=O)[C@@H]2CCCN2C1=O (cyclo(FPY[Kyn]PG))	Active	Non-Toxic	
O=C1CNC(=O)[C@@H]2CCCN2C(=O)[C@H](Cc2c[nH]c3ccccc23)NC(=O)[C@H](Cc2ccc(O)cc2)NC(=O)[C@@H]2CCCN2C(=O)CN1 (cyclo(GGPYWP))	Active	Non-Toxic	
CC[C@H](C)[C@@H]1NC(=O)[C@H](Cc2c[nH]c3ccccc23)NC(=O)[C@@H]2CCCN2C(=O)CNC(=O)[C@H](Cc2ccc(O)cc2)NC(=O)CNC(=O)[C@H](C(C)C)NC(=O)[C@H](C)NC1=O (cyclo(AVGYGPWI))	Active	Non-Toxic	
CC(C)C[C@@H]1NC(=O)[C@@H]2CCCN2C(=O)[C@H](Cc2ccccc2)NC(=O)[C@@H]2CCCN2C(=O)[C@H](C)NC(=O)[C@@H]2CCCN2C(=O)[C@H](Cc2ccc(O)cc2)NC1=O (cyclo(APFPLYP))	Active	Non-Toxic	
C[C@@]12Nc3ccccc3[C@]1(O)C[C@H]1C(=O)N3CCC[C@H]3C(=O)NCC(=O)N[C@@H](Cc3ccccc3)C(=O)N3CCC[C@H]3C(=O)N[C@@H](Cc3ccc(O)cc3)C(=O)N12 (cyclo(FPY[X1]PG))	Active	Non-Toxic	

Source: ChEMBL document CHEMBL5634185, “Drymariamides A-J, Antiadipogenic Cyclopeptides Incorporating Noncanonical Amino Acids from Drymaria cordata” (J Nat Prod, 2024)
